SMILES strings stand for the structures.

The results in this text go back to patent US8729120B2, “Adjunctive therapy for depression” (SK Biopharmaceuticals Co., Ltd., priority 2004, dated 2014).

Common to all, as to type: in vivo
The test system of one test is humans. Description: Placebo controlled study in humans, change in total MADRS (ITT, LOCF). The conditions noted are these: for Change from Baseline in total MADRS, Mean (SD): ITT LOCF, depression rating scale.
For test [1], the system named is Mice. Description: Forced-Swim Test (FST) in Mice.
A further test concerns Rats. Description: Forced-Swim Test (FST) in Rats.
For test [2], the system named is Mice. Description: Reserpine Reversal in Mice.
In test [3] the test system is Mice. Put plainly: Tetrabenazine Reversal in Mice.
In test [4] the test system is Mice. Put plainly: Tail Suspension in Mice.
The test system of test [5] is Mice. Description: Reversal of Isolation-Induced Aggression in Mice.

On to `Fc1ccc([C@@H]2CCNC[C@H]2COc2ccc3c(c2)OCO3)cc1` (relative stereo) [Paroxetine, trans-(−)-3-[(1,3-benzodioxol-5-yloxy)methyl]-4-(4-fluorophenyl)piperidine, reference compound], for which, in the test on humans (20 mg), the “Change from Baseline in total MADRS, Mean (SD)” value is −14.1 (10.71).

As for `Cl.NC(=O)OC[C@H](N)Cc1ccccc1` [Test Compound, (R)-(beta-amino-benzenepropyl) carbamate monohydrochloric acid], the antidepressant effects result in the test on Mice [1], with Rats, in the test on Mice [2], with Mice [3], in the test on Mice [4] and in the test on Mice [5] was “demonstrated antidepressant effects” each time. Besides, the “Change from Baseline in total MADRS, Mean (SD)” value with humans (200 mg) is reported as −12.1 (11.12); in the test on humans (400 mg), −12.4 (11.12). In addition, the “decrease in depression rating scores (MADRS) compared to placebo and paroxetine” value in the test on humans (Table 1) was “greater decrease in depression rating scores (MADRS) as compared to placebo but not as great as the active control, paroxetine”. In the test on humans (compared with Paroxetine), the “antidepressant effects in large placebo controlled study” value is listed as “significant antidepressant effects”.
